Measurements taken from ChEMBL document CHEMBL1137060, “Inactivation of S-adenosylhomocysteine hydrolase with haloethyl and dihalocyclopropyl esters derived from homoadenosine-6'-carboxylic acid” (Bioorg Med Chem Lett, 2004).

Columns and labels:
Adenosylhomocysteinase [1] = biological target: T1, Adenosylhomocysteinase (Homo sapiens, UniProt P23526); assay: Inhibition of human placental AdoHcy hydrolase
Target sequence in this assay (P23526 whole entry): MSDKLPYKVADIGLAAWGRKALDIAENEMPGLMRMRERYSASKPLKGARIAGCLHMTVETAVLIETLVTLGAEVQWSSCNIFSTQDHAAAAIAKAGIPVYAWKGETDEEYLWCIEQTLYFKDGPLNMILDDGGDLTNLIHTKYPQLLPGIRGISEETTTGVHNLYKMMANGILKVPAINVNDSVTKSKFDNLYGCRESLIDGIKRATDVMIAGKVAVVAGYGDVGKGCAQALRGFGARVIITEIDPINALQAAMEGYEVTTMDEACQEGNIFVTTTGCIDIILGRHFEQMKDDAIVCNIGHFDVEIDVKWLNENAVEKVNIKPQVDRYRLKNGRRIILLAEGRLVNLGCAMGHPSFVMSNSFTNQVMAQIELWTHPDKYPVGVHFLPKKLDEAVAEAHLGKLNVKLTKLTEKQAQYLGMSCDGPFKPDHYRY

Adenosylhomocysteinase [2] = biological target: T1, Adenosylhomocysteinase; assay: Inactivation of human placental AdoHcy hydrolase
Target sequence in this assay (P23526 2-432 limits assumed): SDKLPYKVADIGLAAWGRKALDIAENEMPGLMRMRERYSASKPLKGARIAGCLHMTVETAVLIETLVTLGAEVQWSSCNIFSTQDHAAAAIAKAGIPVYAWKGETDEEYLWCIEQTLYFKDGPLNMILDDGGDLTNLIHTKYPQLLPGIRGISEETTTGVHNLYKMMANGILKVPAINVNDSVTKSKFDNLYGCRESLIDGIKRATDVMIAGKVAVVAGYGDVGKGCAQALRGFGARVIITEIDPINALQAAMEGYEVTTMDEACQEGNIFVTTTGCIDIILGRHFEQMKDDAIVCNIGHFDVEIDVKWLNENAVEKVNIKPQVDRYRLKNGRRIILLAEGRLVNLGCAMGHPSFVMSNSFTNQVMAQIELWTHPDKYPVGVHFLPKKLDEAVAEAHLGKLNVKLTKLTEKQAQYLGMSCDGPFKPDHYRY

| SMILES | Ki (Adenosylhomocysteinase [1]) [µM] | K inact (Adenosylhomocysteinase [2]) [min⁻¹] |
| --- | --- | --- |
| Nc1ncnc2c1ncn2C1O[C@H](CC(=O)OCCF)C(O)[C@H]1O (single isomer, unassigned) | 75 | 0.19 |
| Nc1ncnc2c1ncn2C1O[C@H](CC(=O)OC2CC2(Cl)Cl)C(O)[C@H]1O (single isomer, unassigned) | 750 | 0.09 |
| Nc1ncnc2c1ncn2C1O[C@H](CC(=O)OCCCl)C(O)[C@H]1O (single isomer, unassigned) | 302 | 0.43 |
| Nc1ncnc2c1ncn2C1O[C@H](CC(=O)OC2CC2(F)F)C(O)[C@H]1O (single isomer, unassigned) | 17 | 0.008 |
